# “And” between values parts separate entries of the source, which are not always exact repeats. Identical values can stand only once. Like-named read-outs stand apart in the source and are kept apart here.
# How the values were obtained:
# PDK2/PDHK2 = target: T1, PDK2/PDHK2 (Homo sapiens, UniProt Q15119); assay: HotSpot in vitro kinase radiometric assay; type: biochemical; conditions: read-out: % inhibition at 10 uM: PDK2; 10 μM; Fig 6C median ± standard deviation (n = 2)
# T1 construct: purchased Reaction Biology (HotSpot contract assay)
# Outline: (§1)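 Radiometric filter-binding read-out of 32P/33P-labelled phosphoproduct captured on filter paper. Reactions contain kinase, substrate, cofactors and ɣ-labelled ATP plus test compound; no modified substrate or coupling enzyme used.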
# PDK4/PDKH4 = target: T2, PDK4/PDKH4 (Homo sapiens, UniProt Q16654); assay: HotSpot in vitro kinase radiometric assay; type: biochemical; conditions: read-out: % inhibition at 10 uM: PDK4; 10 μM; Fig 6C median ± standard deviation (n = 2)
# T2 construct: purchased Reaction Biology (HotSpot contract assay)
# Outline: as §1
# BLK = target: T3, BLK (Homo sapiens, UniProt P51451); assay: HotSpot in vitro kinase radiometric assay; type: biochemical; conditions: read-out: % inhibition at 10 uM: BLK; 10 μM; Fig 6C median ± standard deviation (n = 2)
# T3 construct: purchased Reaction Biology (HotSpot contract assay)
# Outline: as §1
# c-Src = target: T4, c-Src (Homo sapiens, UniProt P12931); assay: HotSpot in vitro kinase radiometric assay; type: biochemical; conditions: read-out: % inhibition at 10 uM: SRC; 10 μM; Fig 6C median ± standard deviation (n = 2)
# T4 construct: purchased Reaction Biology (HotSpot contract assay)
# Outline: as §1
# LYN B = target: T5, LYN B (Homo sapiens, UniProt P07948); assay: HotSpot in vitro kinase radiometric assay; type: biochemical; conditions: read-out: % inhibition at 10 uM: LYN B; 10 μM; Fig 6C median ± standard deviation (n = 2)
# T5 construct: purchased Reaction Biology (HotSpot contract assay)
# Outline: as §1
# ABL1 = ABL1 (Homo sapiens, UniProt P00519); assay: HotSpot in vitro kinase radiometric assay; type: biochemical; design: purchased Reaction Biology (HotSpot contract assay)
# PEAK1 = target: T6, PEAK1 (Homo sapiens, UniProt Q9H792); assay: HotSpot in vitro kinase radiometric assay; type: biochemical; conditions: Fig 6C median ± standard deviation (n = 2)
# T6 construct: purchased Reaction Biology (HotSpot contract assay)
# 382 unique human kinases [1] = target: T7, 382 unique human kinases (Homo sapiens, UniProt P24941); assay: biochemical; type: biochemical; conditions: 10 uM; for remaining activity at 10 µM: read-out: % Enzyme Activity (relative to DMSO controls)
# T7 construct: purchased Reaction Biology (HotSpot contract assay)
# 382 unique human kinases [2] = target: T8, 382 unique human kinases (Homo sapiens, UniProt P50750); assay: biochemical; type: biochemical; conditions: CDK9/cyclin T1, 10 uM
# T8 construct: purchased Reaction Biology (HotSpot contract assay)
# 382 unique human kinases [3] = target: T9, 382 unique human kinases (Homo sapiens, UniProt Q00534); assay: biochemical; type: biochemical; conditions: CDK6/cyclin D3, 10 uM
# T9 construct: purchased Reaction Biology (HotSpot contract assay)
# 382 unique human kinases [4] = target: T10, 382 unique human kinases (Homo sapiens, UniProt P11802); assay: biochemical; type: biochemical; conditions: CDK4/cyclin D3, [ATP] 5 µM, compound 10 uM
# T10 construct: purchased Reaction Biology (HotSpot contract assay)
# 382 unique human kinases [5] = assay: biochemical; type: biochemical
# HSP90AB1 = system: HSP90AB1; design: method as in ChEMBL23 (accessed: 23/08/2018); conditions: average of reported values; ref ChEMBL23 (accessed: 23/08/2018); cited from earlier work
# TRKC = target: T11, TRKC (Homo sapiens, UniProt Q16288); assay: HotSpot in vitro kinase radiometric assay; type: biochemical; conditions: read-out: % inhibition at 10 uM: TRKC; 10 μM; Fig 6C median ± standard deviation (n = 2)
# T11 construct: purchased Reaction Biology (HotSpot contract assay)
# TRKA-TFG (TRK-T3) = target: T12, TRKA-TFG (TRK-T3) (Homo sapiens, UniProt P04629+Q92734); assay: HotSpot in vitro kinase radiometric assay; type: biochemical; conditions: radiometric 10-point concentration-response, n = 3; read-out: in vitro biochemical IC50, TRKA-TFG
# T12 construct: purchased Reaction Biology (HotSpot contract assay)
# DDR1 = DDR1 (Homo sapiens, UniProt Q08345); assay: HotSpot in vitro kinase radiometric assay; type: biochemical; design: purchased Reaction Biology (HotSpot contract assay)
# FYN = target: T13, FYN (Homo sapiens, UniProt P06241); assay: HotSpot in vitro kinase radiometric assay; type: biochemical; conditions: read-out: % inhibition at 10 uM: FYN; 10 μM; Fig 6C median ± standard deviation (n = 2)
# T13 construct: purchased Reaction Biology (HotSpot contract assay)
# ABL2/ARG = target: T14, ABL2/ARG (Homo sapiens, UniProt P42684); assay: HotSpot in vitro kinase radiometric assay; type: biochemical
# T14 construct: purchased Reaction Biology (HotSpot contract assay)
# TRKA = target: T15, TRKA (Homo sapiens, UniProt P04629); assay: HotSpot in vitro kinase radiometric assay; type: biochemical; conditions: read-out: % inhibition at 10 uM: TRKA; 10 μM; Fig 6C median ± standard deviation (n = 2)
# T15 construct: purchased Reaction Biology (HotSpot contract assay)
# Outline: as §1
# PASK = target: T16, PASK (Homo sapiens, UniProt Q96RG2); assay: HotSpot in vitro kinase radiometric assay; type: biochemical; conditions: read-out: % inhibition at 10 uM: PASK; 10 μM; Fig 6C median ± standard deviation (n = 2)
# T16 construct: purchased Reaction Biology (HotSpot contract assay)
# Outline: as §1
# [6] = 10 μM, Fig 6C median ± standard deviation (n = 2)
# [7] = read-out: % Enzyme Activity (relative to DMSO controls)
# T14 sequence (P42684 whole entry): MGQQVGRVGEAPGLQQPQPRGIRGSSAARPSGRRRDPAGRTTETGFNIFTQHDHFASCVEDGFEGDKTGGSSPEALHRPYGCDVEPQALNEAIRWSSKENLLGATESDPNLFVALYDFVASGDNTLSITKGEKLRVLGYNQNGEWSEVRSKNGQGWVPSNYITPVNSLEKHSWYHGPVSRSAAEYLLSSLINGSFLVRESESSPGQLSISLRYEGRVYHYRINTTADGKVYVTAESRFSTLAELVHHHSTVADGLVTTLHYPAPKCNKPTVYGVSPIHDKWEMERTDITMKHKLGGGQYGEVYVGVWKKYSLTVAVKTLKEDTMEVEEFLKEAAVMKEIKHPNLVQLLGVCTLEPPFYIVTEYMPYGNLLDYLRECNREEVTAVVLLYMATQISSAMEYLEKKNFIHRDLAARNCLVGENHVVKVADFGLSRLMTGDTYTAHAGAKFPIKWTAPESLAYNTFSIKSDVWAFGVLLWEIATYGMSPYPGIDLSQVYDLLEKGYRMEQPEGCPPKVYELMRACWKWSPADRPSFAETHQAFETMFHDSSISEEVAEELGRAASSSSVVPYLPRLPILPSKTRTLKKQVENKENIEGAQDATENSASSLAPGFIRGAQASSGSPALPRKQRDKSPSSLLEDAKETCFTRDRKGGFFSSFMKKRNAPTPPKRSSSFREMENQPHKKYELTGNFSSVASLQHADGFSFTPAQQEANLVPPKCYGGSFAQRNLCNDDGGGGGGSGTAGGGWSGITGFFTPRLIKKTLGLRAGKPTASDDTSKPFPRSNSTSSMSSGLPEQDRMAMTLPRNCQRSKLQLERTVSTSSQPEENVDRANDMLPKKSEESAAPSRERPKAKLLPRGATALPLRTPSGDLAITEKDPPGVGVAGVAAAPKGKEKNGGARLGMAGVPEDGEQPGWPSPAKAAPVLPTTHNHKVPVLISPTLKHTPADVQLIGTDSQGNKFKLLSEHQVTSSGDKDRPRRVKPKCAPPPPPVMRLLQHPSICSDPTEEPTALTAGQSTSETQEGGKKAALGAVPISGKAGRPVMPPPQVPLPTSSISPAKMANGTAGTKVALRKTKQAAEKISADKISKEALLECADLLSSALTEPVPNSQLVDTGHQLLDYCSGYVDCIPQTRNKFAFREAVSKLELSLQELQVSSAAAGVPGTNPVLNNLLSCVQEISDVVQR
# Sequence of ABL1 (P00519 whole entry): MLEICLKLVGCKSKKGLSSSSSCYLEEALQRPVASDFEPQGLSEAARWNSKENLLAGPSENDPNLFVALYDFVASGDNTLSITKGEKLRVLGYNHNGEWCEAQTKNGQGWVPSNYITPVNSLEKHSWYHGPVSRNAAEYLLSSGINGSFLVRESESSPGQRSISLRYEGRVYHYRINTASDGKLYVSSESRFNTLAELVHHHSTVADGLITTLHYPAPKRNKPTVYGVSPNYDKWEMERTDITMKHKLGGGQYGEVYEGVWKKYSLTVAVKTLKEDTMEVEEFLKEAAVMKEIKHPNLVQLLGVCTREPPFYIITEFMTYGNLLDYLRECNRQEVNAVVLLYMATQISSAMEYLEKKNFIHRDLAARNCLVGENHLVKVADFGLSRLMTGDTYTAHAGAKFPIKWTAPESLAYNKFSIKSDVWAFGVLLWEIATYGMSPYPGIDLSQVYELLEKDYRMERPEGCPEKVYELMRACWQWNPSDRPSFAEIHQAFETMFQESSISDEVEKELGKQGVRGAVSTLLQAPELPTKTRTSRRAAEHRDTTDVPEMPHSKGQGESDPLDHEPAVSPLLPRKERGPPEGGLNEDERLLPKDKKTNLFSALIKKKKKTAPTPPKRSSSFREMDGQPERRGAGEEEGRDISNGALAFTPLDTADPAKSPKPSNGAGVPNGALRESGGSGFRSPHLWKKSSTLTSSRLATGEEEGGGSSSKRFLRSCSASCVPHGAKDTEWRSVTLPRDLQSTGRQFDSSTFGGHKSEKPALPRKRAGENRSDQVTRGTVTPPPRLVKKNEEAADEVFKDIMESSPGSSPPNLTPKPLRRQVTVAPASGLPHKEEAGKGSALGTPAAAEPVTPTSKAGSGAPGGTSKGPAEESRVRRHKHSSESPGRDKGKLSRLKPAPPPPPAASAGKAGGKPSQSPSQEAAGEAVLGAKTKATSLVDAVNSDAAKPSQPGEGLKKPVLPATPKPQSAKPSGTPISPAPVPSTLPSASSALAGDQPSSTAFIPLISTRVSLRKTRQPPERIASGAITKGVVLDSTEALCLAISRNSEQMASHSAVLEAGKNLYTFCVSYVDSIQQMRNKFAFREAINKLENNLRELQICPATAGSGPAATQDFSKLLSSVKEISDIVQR
# Sequence of DDR1 (Q08345 19-913): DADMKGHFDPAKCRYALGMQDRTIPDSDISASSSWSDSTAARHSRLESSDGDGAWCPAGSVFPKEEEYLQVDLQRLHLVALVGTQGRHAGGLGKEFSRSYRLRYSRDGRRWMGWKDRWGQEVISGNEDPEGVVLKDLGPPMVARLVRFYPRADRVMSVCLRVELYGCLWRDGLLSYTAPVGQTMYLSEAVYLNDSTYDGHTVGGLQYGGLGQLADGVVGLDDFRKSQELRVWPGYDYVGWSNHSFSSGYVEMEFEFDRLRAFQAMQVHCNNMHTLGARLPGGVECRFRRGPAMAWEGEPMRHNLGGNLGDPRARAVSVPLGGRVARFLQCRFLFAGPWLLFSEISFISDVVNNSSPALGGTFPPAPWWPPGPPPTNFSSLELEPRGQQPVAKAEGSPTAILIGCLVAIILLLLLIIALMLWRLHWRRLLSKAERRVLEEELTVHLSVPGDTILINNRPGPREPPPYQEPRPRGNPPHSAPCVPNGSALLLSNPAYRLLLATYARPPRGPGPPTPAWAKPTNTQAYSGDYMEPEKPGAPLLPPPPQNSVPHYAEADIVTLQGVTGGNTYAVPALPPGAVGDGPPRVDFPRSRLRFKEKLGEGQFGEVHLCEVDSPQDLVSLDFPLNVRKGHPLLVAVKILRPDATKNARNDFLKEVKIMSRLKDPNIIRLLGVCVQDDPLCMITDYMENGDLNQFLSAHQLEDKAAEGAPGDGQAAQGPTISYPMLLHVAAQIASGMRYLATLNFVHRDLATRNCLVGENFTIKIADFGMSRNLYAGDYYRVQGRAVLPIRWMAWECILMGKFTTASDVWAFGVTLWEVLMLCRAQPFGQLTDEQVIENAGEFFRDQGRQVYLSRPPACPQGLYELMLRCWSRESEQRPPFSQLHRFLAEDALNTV
# T10 sequence (P11802 whole entry): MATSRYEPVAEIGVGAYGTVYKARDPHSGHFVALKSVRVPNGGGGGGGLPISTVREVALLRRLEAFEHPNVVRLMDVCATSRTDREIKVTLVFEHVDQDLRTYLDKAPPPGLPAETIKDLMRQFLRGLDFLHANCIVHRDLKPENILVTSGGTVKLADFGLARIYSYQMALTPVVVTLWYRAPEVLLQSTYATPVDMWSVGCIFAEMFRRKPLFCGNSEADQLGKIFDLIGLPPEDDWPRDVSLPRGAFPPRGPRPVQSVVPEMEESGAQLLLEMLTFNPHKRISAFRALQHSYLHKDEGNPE
# T8 sequence (P50750 whole entry): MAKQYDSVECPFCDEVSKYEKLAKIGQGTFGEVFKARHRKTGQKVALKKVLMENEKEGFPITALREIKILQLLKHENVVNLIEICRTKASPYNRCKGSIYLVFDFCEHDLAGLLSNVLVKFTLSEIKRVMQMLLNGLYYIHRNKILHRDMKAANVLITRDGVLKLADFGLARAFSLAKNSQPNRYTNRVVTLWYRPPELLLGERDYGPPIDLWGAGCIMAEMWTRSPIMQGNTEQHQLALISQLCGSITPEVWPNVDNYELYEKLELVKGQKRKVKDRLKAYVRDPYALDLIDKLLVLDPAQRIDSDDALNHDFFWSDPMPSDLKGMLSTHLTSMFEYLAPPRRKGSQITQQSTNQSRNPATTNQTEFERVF
# T9 sequence (Q00534 whole entry): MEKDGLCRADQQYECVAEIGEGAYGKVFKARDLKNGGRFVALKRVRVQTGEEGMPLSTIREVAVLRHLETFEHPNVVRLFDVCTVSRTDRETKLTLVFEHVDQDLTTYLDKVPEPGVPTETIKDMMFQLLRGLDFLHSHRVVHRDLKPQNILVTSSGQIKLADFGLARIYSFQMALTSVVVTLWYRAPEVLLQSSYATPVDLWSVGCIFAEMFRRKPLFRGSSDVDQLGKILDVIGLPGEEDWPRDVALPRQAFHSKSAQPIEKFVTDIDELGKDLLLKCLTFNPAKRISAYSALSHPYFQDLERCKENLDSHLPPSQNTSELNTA
# T3 sequence (P51451 whole entry): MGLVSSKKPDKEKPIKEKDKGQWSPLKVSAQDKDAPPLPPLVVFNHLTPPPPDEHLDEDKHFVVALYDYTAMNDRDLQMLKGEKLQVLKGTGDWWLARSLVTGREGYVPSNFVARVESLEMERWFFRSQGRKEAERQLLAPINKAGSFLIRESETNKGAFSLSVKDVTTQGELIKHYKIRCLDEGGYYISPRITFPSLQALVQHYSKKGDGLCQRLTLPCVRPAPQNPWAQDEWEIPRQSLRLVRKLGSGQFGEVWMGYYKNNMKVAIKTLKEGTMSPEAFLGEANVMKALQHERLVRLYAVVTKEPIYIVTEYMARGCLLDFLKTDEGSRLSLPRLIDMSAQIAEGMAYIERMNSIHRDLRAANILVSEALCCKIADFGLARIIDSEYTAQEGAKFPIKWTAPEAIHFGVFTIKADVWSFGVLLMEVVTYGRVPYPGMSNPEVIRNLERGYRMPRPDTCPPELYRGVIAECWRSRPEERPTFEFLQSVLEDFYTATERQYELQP
structure (smiles),measurement,setting,value
CCNC(=O)c1noc(-c2cc(C(C)C)c(O)cc2O)c1-c1ccc(CN2CCOCC2)cc1 [Luminespib],inhibition at 10 µM,PDK2/PDHK2,78 ± 1%
same,inhibition at 10 µM,PDK4/PDKH4,71 ± 2%
same,inhibition at 10 µM,BLK,62 ± 1%
same,inhibition at 10 µM,c-Src,65 ± 2%
same,inhibition at 10 µM,LYN B,74 ± 1%
same,% inhibition at 10 uM: ABL1,ABL1; [6],93 ± 1%
same,HILLSLOPE,"ABL1; ABL1, single replicate curves",-3.07 and -2.62 and -3.14
same,IC50,"ABL1; ABL1, single replicate curves, read-out: IC50",3.57 µM and 3.39 µM and 3.22 µM
same,IC50,"ABL1; radiometric 10-point concentration-response, n = 3, read-out: in vitro biochemical IC50, ABL1",3.39 µM
same,inhibition at 10 µM,"ABL1; read-out: % inhibition at 10 uM: ABL1, 10 μM, Fig 6C median ± standard deviation (n = 2)",> 85%
same,% inhibition at 10 uM: PEAK1,PEAK1; 10 μM,70 ± 1%
same,inhibition at 10 µM,"PEAK1; read-out: % inhibition at 10 uM: PEAK1, 10 μM",> 70%
same,% Enzyme Activity (relative to DMSO controls),382 unique human kinases [1]; CDK2/Cyclin A1,96.40%
same,remaining activity at 10 µM,382 unique human kinases [1]; CDK2/Cyclin A1,97.4%
same,% Enzyme Activity (relative to DMSO controls),382 unique human kinases [1]; CDK2/cyclin E,98.18%
same,remaining activity at 10 µM,382 unique human kinases [1]; CDK2/cyclin E,101%
same,% Enzyme Activity (relative to DMSO controls),382 unique human kinases [2],103.10%
same,remaining activity at 10 µM,382 unique human kinases [2]; [7],105%
same,% Enzyme Activity (relative to DMSO controls),382 unique human kinases [3],112.00%
same,remaining activity at 10 µM,382 unique human kinases [3]; [7],113%
same,% Enzyme Activity (relative to DMSO controls),382 unique human kinases [4],101.56%
same,remaining activity at 10 µM,382 unique human kinases [4]; [7],102%
same,number of kinase off-targets inhibited by more than 50% at 10 μM,382 unique human kinases [5]; 10 μM,14
same,number of native kinases inhibited by more than 85% at 10 μM,382 unique human kinases [5]; 10 μM,two
same,% Enzyme Activity (relative to DMSO controls),"382 unique human kinases [5]; ALK (T1151-L1152insT), [ATP] 20 µM, compound 10 uM",108.18% and 107.06%
same,% Enzyme Activity (relative to DMSO controls),"382 unique human kinases [5]; ALK-TPM3, [ATP] 15 µM, compound 10 uM",105.28% and 105.22%
same,% Enzyme Activity (relative to DMSO controls),"382 unique human kinases [5]; BRAF (T599_V600insT), 10 uM",98.93% and 97.05%
same,% Enzyme Activity (relative to DMSO controls),"382 unique human kinases [5]; BRAF-FAM131B (Fex2Bex9), 10 uM",111.02% and 110.19%
same,% Enzyme Activity (relative to DMSO controls),"382 unique human kinases [5]; EGFR (d746-750/C797S), 10 uM",93.95% and 93.48%
same,% Enzyme Activity (relative to DMSO controls),"382 unique human kinases [5]; ERBB2 (V777_G778insCG), 10 uM",103.65% and 102.78%
same,% Enzyme Activity (relative to DMSO controls),"382 unique human kinases [5]; FGFR1OP-FGFR1, [ATP] 10 µM, compound 10 uM",103.05% and 103.02%
same,% Enzyme Activity (relative to DMSO controls),"382 unique human kinases [5]; FLT3 (ITD), [ATP] 30 µM, compound 10 uM",91.11% and 89.12%
same,In vitro screening: kinases hit / kinases screened,382 unique human kinases [5]; Figure 3,2/382
same,% Enzyme Activity (relative to DMSO controls),"382 unique human kinases [5]; KSR1 (A635F), 10 uM",100.08% and 96.91%
same,% Enzyme Activity (relative to DMSO controls),"382 unique human kinases [5]; LYN B, [ATP] 20 µM, compound 10 uM",26.10% and 25.22%
same,% Enzyme Activity (relative to DMSO controls),"382 unique human kinases [5]; PKCb2, 10 uM",102.18% and 101.94%
same,% Enzyme Activity (relative to DMSO controls),"382 unique human kinases [5]; ROS1-GOPC, [ATP] 15 µM, compound 10 uM",101.12% and 99.93%
same,% Enzyme Activity (relative to DMSO controls),"382 unique human kinases [5]; TRKA-TFG (TRK-T3), [ATP] 20 µM, compound 10 uM",85.72% and 85.69%
same,% Enzyme Activity (relative to DMSO controls),"382 unique human kinases [5]; TRKA-TPM3, [ATP] 50 µM, compound 10 uM",90.74% and 88.03%
same,% Enzyme Activity (relative to DMSO controls),"382 unique human kinases [5]; TRKA-TPR, [ATP] 50 µM, compound 10 uM",90.04% and 89.94%
same,% Enzyme Activity (relative to DMSO controls),"382 unique human kinases [5]; c-Kit (d557-558), [ATP] 10 µM, compound 10 uM",63.45% and 62.37%
same,"number of off-target kinases experimentally identified, In vitro binding (KinomeSCAN)","382 unique human kinases [5]; cutoff of >85% inhibition at 10 μM, luminespib and ganetespib large kinome panel, others 16-kinase panel",2
same,"pActivity, HSP90AB1",HSP90AB1,8.09
same,inhibition at 10 µM,TRKC,4 ± 2%
same,IC50,TRKA-TFG (TRK-T3),> 10 µM
same,IC50,"DDR1; radiometric 10-point concentration-response, n = 3, read-out: in vitro biochemical IC50, DDR1",> 10 µM
same,inhibition at 10 µM,"DDR1; read-out: % inhibition at 10 uM: DDR1, 10 μM, Fig 6C median ± standard deviation (n = 2)",15 ± 1%
same,inhibition at 10 µM,FYN,35%
same,% inhibition at 10 uM: ABL2,ABL2/ARG; [6],92 ± 0%
same,HILLSLOPE,"ABL2/ARG; ABL2, single replicate curves",-2.11 and -2.06 and -1.92
same,IC50,"ABL2/ARG; ABL2, single replicate curves, read-out: IC50",4.57 µM and 4.33 µM and 4.12 µM
same,IC50,"ABL2/ARG; radiometric 10-point concentration-response, n = 3, read-out: in vitro biochemical IC50, ABL2",4.34 µM
same,inhibition at 10 µM,"ABL2/ARG; read-out: % inhibition at 10 uM: ABL2, 10 μM, Fig 6C median ± standard deviation (n = 2)",> 85%
same,inhibition at 10 µM,TRKA,-1%
same,inhibition at 10 µM,PASK,1%
